The values that follow come from patent US20160376659A1, “Breast Cancer Biomarker” (The University of Manchester, priority 2015, published 2016).

Common to all, as to design: species or system mice
One assay relates to MCF-7 cells. The assay is described as follows: In vivo tumor initiation of pre-treated MCF-7 cells (limiting dilution, ELDA). As to conditions: for in vivo tumor initiation capacity: 6 days in vitro pre-treatment, 100,000 MCF-7 cells, Nude mice, day 90; for enrichment in tumor-initiating cell frequency (ELDA): MCF-7 pre-treated six days, limiting dilution in NSG mice, day 60. As to the method:
To determine tumor initiation capacity of MCF-7 cells or metastatic (BB3RC31) PDX cells treated in vitro or in vivo, respectively, Nude or NSG mice were injected subcutaneously with cells in mammosphere media mixed 1:1 with Matrigel. 8 μg/ml of 17-beta estradiol was administered in drinking water or 90-day slow release estrogen pellets were implanted sub-cutaneously into mice two days before cell injection (0.72 mg, Innovative Research of America). […] Positive tumor growth was assessed at day 60 or 90 after cell injection by determining the mice bearing a tumor greater than 100 mm^3 and is represented as mice positive for growth/mice tested (n=4 per condition in all experiments). p values were calculated with Chi-squared test.

In assay [1] the test system is metastatic (BB3RC31) PDX cells. Briefly: Secondary tumor formation of cells from PDX tumors treated in vivo. As to conditions: 90 days post-implantation; for tumor-initiating capacity in secondary mouse hosts: cells from PDX tumors treated in vivo. The protocol: (§1) Tamoxifen citrate (Sigma, T9262, 10 mg/kg/day) and RO4929097 (Cellagen Technology, 3 mg/kg/day) were administered by oral gavage (0.1 ml/dose) on a five day from seven basis (weekends excluded) for fourteen days. Tamoxifen citrate and RO4929097 were prepared in 1% carboxymethylcellulose (Sigma, C9481) dissolved in distilled water. Fulvestrant (kindly provided by Astrazeneca, 200 mg/kg/week) was administered by subcutaneous injection (0.1 ml/dose) on a weekly basis for fourteen days. The HBC×22 and HBC×34 tamoxifen-resistant PDXs have been established by our collaborators in the Curie Institute (Cottu el al, 2014) and were treated for fourteen days in the presence or absence of the gamma-secretase inhibitor RO4929097 (10 mg/kg/day, oral gavage). Xenografts were collected in ice cold DMEM media for live cell assays, histological analysis and RNA and protein extraction. Patient-derived xenograft single cell suspension was obtained using a collagenase-hyaluronidase mixture for digestion (Stem Cell Technologies).
To determine tumor initiation capacity of MCF-7 cells or metastatic (BB3RC31) PDX cells treated in vitro or in vivo, respectively, Nude or NSG mice were injected subcutaneously with cells in mammosphere media mixed 1:1 with Matrigel. 8 μg/ml of 17-beta estradiol was administered in drinking water or 90-day slow release estrogen pellets were implanted sub-cutaneously into mice two days before cell injection (0.72 mg, Innovative Research of America). Serial limiting dilution implantation of MCF-7 cells (10.000, 1.000, 100, 10 cells) and the Extreme Limiting Dilution Analysis (ELDA) software (The Walter and Eliza Hall Institute of Medical Research) were used to perform calculations (95% CI) of tumor initiation. Positive tumor growth was assessed at day 60 or 90 after cell injection by determining the mice bearing a tumor greater than 100 mm^3 and is represented as mice positive for growth/mice tested (n=4 per condition in all experiments). p values were calculated with Chi-squared test.

For assay [2], the system named is Early (HBC×34) and metastatic (BB3RC31) BC estrogen-dependent patient-derived xenograft tumors. The assay is described as follows: 14 day in vivo window treatment of ER+ PDX tumors: tumor growth, Ki67, ER, PR. As to conditions: for proliferation marker Ki67 / tumor growth: 14 days, tamoxifen 10 mg/kg/day oral, fulvestrant 200 mg/kg/week s.c., RO4929097 3 mg/kg/day oral; for ER and PR protein expression levels: PDX tumors, 14 days in vivo, immunohistochemistry. As to the method:
(§2) Early (HBC×34) and metastatic (BB3RC31) BC estrogen-dependent PDXs were administered with 8 ug/ml of 17-beta estradiol in drinking water at all times and were treated with drugs when tumors reached 200-300 mm^3. Experiments were performed using PDX tumors between passages 5 and 8. Animal weight and tumor size was measured bi-dimensionally using callipers twice a week. The HBC×34 model was kindly provided by Dr Elisabetta Marangoni from Institute Curie, Paris (Cottu et al., 2012).
as §1
Tissue microarrays (TMAs) were constructed from all formalin fixed and paraffin embedded tissue. 3×1 mm cores were taken per tissue block, and TMAs were cut into 3 μm thick sections and analysed by immunohistochemistry. Antibodies utilised were anti-ERα (Thermo, SP1), anti-PgR (Dako, M3569), anti-Ki67 (Dako, M7240), anti-HER2 (Vector Laboratories, VP-C380), anti-Hes1 (Abcam, ab108937) and anti-ALDH1 (BD Biosciences, 611195). Antigen retrieval was performed either using Target Retrieval Solution pH9 (Dako S2367, for ER, PR, Ki67 and ALDH1), Target Retrieval Solution pH6 (Dako S1699, for Hes1) or in 10 mM Citrate buffer (for HER2) in a […] water bath for 25 mins. All antibodies were detected using Dako EnVision Detection System Peroxidase/DAB, Rabbit/Mouse (Dako, K5007) and sections were counterstained with haematoxylin. Staining was quantified using Definiens Tissue Studio software. The percentage of positive epithelial cells was scored on 3 cores per tissue sample. For ER immunocytochemistry, approximately 50.000 cells were FACS sorted and then cytospun for 5 min at 80 G on poly-lysine coated slides. Cells were fixed with 4% paraformaldehyde (5 min), permeabilised with acetone (4 min) and methanol (2 min), and then blocked for 10 min with Peroxidase Blocking Reagent (Dako, S2001) and further 10 min with 3% goat serum before incubation with primary antibody. ER was then detected as described above for immunohistochemistry.

Assay [3] concerns Early (HBC×34) and metastatic (BB3RC31) PDX tumors. The assay is described as follows: BCSC activity (MFE, ALDEFLUOR) of ER+ PDX tumors treated in vivo. To be noted: 14 days; for BCSC activity measured by MFE and ALDH enzymatic activity: tamoxifen 10 mg/kg/day oral, fulvestrant 200 mg/kg/week s.c. The protocol: as §2
as §1, with “Xenografts were collected in ice cold DMEM media for live cell assays, histological analysis and RNA and protein extraction. Patient-derived xenograft single cell suspension was obtained using a collagenase-hyaluronidase mixture for digestion (Stem Cell Technologies).” left out
Single cell suspensions of freshly isolated ER+ primary and metastatic patient-derived samples were cultured for 7-9 days (primary cells) in mammosphere colony assays in the presence of ethanol, 10^−6 M 4-hydroxy-tamoxifen or 10^−7 M fulvestrant. […] Mammosphere formation efficiency (MFE) was calculated by dividing the number of mammospheres formed (≧50 μm) by the original number of single cells seeded (500 cells/cm^2 for primary cells and 200 cells/cm^2 for cell lines) and is expressed as fold change normalised to control or as the mean percentage of MFE (Shaw et al., 2012).
Dissociated single cells were suspended in Aldefluor assay buffer containing an ALDH substrate, bodipyaminoacetaldehyde (BAAA) at […], and incubated for 45 min at 37° C. […] Data were acquired on a LSR II (BD) flow cytometer and analysed using the BD FACSDiva™ software.

Structures are written as SMILES. “Also recorded” adds a separate entry of the source.

Turning to `CC(C)(C(=O)NCC(F)(F)C(F)(F)F)C(=O)N[C@@H]1C(=O)Nc2ccccc2-c2ccccc21` [RO4929097], the “enrichment in tumor-initiating cell frequency following tamoxifen or fulvestrant pre-treatment” value with MCF-7 cells (co-treatment with RO4929097 10 μM) is reported as “reversed”. Moreover, in assay [1], the “tumor-initiating capacity in secondary mouse hosts” value (shortened to “tumor-initiating capacity”) is “significantly reduced”. The “stimulation of tumorigenicity following in vivo tamoxifen and fulvestrant treatment” value in assay [1] (combination with RO4929097) was “completely reversed”. In assay [2], the “proliferation marker Ki67” value is “no impact”; the tumor growth result was “no impact”; the “ER and PR protein expression levels” value is “not modified”. The “endocrine stimulated BCSC activity (MFE and Aldefluor activity)” value in assay [3] (RO4929097 3 mg/kg/day oral with tamoxifen or fulvestrant) is given as “significantly inhibited”.
Consider `C[C@]12CC[C@@H]3c4ccc(O)cc4C[C@@H](CCCCCCCCC[S+]([O-])CCCC(F)(F)C(F)(F)F)[C@H]3[C@@H]1CC[C@@H]2O` (stereo partly drawn) [fulvestrant], for which, in the assay on MCF-7 cells, the “in vivo tumor initiation capacity” value was “enriched” and the “enrichment in tumor-initiating cell frequency (ELDA)” value was 11 fold. Besides, the “tumor-initiating capacity” value in assay [1] was “stimulation of tumorigenicity”. In addition, in assay [2], the “proliferation marker Ki67” value was “decrease; also recorded: reduced”; the tumor growth result is on record as “reduced”; the “ER and PR protein expression levels” value is “reduced”. For the same compound, the “BCSC activity measured by MFE and ALDH enzymatic activity” value in assay [3] is reported as “paradoxical increase; also recorded: increasing”.
For the compound `CC/C(=C(\c1ccccc1)c1ccc(OCCN(C)C)cc1)c1ccccc1` [tamoxifen, (Z)-2-[4-(1,2-diphenylbut-1-enyl)phenoxy]-N,N-dimethylethanamine], in the assay on MCF-7 cells, the “in vivo tumor initiation capacity” value is recorded as “enriched” and the “enrichment in tumor-initiating cell frequency (ELDA)” value was determined as 11 fold. In assay [1], the “tumor-initiating capacity” value was “stimulation of tumorigenicity”. For the same compound, in assay [2], the “proliferation marker Ki67” value was “decrease; also recorded: reduced” and the tumor growth result is given as “reduced”. For the same compound, the PR expression entry in assay [2] (HBC×34 (early BC) PDX) is “down-regulated”. Further, the “BCSC activity measured by MFE and ALDH enzymatic activity” value in assay [3] is listed as “paradoxical increase; also recorded: increasing”.
